Here are results for 3 molecules from ChEMBL document CHEMBL5344419, “Synthesis and characterization of the N-succinyl-l,l-diaminopimelic acid desuccinylase (DapE) alternate substrate analog N,N-dimethyl-l,l-SDAP” (Bioorg Med Chem, 2023).

The source made the active and inactive calls. The rule behind the calls is not given here.

The target of series [1] is T1, Succinyl-diaminopimelate desuccinylase (Haemophilus influenzae (strain ATCC 51907 / DSM 11121 / KW20 / Rd), UniProt P44514).
T1 sequence (P44514 whole entry): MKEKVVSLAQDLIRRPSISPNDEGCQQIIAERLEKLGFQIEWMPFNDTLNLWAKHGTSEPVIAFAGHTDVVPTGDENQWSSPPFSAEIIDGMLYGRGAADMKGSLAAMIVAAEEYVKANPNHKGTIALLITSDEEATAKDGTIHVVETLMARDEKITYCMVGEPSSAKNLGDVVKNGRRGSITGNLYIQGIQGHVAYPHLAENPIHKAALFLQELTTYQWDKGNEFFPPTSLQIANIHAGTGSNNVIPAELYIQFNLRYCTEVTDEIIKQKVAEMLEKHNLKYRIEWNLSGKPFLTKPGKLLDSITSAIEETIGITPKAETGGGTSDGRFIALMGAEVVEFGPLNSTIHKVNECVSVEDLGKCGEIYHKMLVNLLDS
The experiment in a line: Inhibition of Haemophilus influenzae DapE at 80 degreeC incubated for 15 mins by ninhydrin based assay.

For series [2], the target named is T1, Succinyl-diaminopimelate desuccinylase. The experiment in a line: Inhibition of Haemophilus influenzae DapE at 100 degreeC incubated for 10 mins by ninhydrin based assay.
Series [3] concerns the target T2, Succinyl-diaminopimelate desuccinylase (Haemophilus influenzae (strain ATCC 51907 / DSM 11121 / KW20 / Rd)) (UniProt P44514).
T2 sequence (whole entry): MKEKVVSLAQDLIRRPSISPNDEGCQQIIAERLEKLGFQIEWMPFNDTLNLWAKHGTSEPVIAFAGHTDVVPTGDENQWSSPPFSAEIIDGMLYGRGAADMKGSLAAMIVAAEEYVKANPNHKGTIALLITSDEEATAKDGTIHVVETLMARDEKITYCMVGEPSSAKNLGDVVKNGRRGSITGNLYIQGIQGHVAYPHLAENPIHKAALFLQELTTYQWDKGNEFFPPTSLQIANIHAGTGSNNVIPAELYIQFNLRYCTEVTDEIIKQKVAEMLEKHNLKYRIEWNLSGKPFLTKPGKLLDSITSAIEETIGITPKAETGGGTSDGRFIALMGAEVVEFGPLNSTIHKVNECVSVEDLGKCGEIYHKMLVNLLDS
The experiment in a line: Thermal stabilization of Haemophilus influenzae DapE assessed as increase in second melting temperature by SYPRO orange dye based thermal shift assay.

Series [4] addresses T1, Succinyl-diaminopimelate desuccinylase. The series is described as follows: Binding affinity to Haemophilus influenzae DapE assessed as dissociation constant.
In series [5] the target is T2, Succinyl-diaminopimelate desuccinylase (Haemophilus influenzae (strain ATCC 51907 / DSM 11121 / KW20 / Rd)). The experiment in a line: Thermal stabilization of Haemophilus influenzae DapE assessed as increase in first melting temperature by SYPRO orange dye based thermal shift assay.
Substrate in series [6]: CN(C)[C@@H](CCC[C@H](NC(=O)CCC(=O)O)C(=O)O)C(=O)O
The experiment in a line: (§1) Substrate activity at Haemophilus influenzae DapE assessed as Kcat/Km incubated for 10 mins by ninhydrin based assay.

Substrate in series [7]: CN[C@@H](CCC[C@H](NC(=O)CCC(=O)O)C(=O)O)C(=O)O
Described as §1.

Substrate in series [8]: CN(C)[C@@H](CCC[C@H](NC(=O)CCC(=O)O)C(=O)O)C(=O)O
The series is described as follows: Substrate activity at Haemophilus influenzae DapE assessed as Kcat/Km at 80 DegreeC incubated for 15 mins by ninhydrin based assay.

Substrate in series [9]: CN(C)[C@@H](CCC[C@H](NC(=O)CCC(=O)O)C(=O)O)C(=O)O
The experiment in a line: Substrate activity at Haemophilus influenzae DapE assessed as Kcat/Km at 100 DegreeC incubated for 10 mins by ninhydrin assay.

By IC50 is commonly meant the concentration that inhibits the measured activity by half. A higher IC50 goes with weaker potency in that assay. Broadly, the ΔTm is the change in melting temperature against a reference sample. Broadly, the Kd is the equilibrium constant for the complex coming apart. For `CN(C)[C@@H](CCC[C@H](NC(=O)CCC(=O)O)C(=O)O)C(=O)O`, the figures for the IC50 in [1] and in [2] were 0.89 µM and 1.5 µM, respectively. In addition, the ΔTm in [3] was 3 °C. In [4], the Kd was 1320 µM. The outcome in [5] was Active.

As to `CN[C@@H](CCC[C@H](NC(=O)CCC(=O)O)C(=O)O)C(=O)O`, the outcome in [5] was Active.

B1: Succinyl-diaminopimelate desuccinylase (Haemophilus influenzae (strain ATCC 51907 / DSM 11121 / KW20 / Rd)), P44514 (protein)
chain: MKEKVVSLAQDLIRRPSISPNDEGCQQIIAERLEKLGFQIEWMPFNDTLNLWAKHGTSEPVIAFAGHTDVVPTGDENQWSSPPFSAEIIDGMLYGRGAADMKGSLAAMIVAAEEYVKANPNHKGTIALLITSDEEATAKDGTIHVVETLMARDEKITYCMVGEPSSAKNLGDVVKNGRRGSITGNLYIQGIQGHVAYPHLAENPIHKAALFLQELTTYQWDKGNEFFPPTSLQIANIHAGTGSNNVIPAELYIQFNLRYCTEVTDEIIKQKVAEMLEKHNLKYRIEWNLSGKPFLTKPGKLLDSITSAIEETIGITPKAETGGGTSDGRFIALMGAEVVEFGPLNSTIHKVNECVSVEDLGKCGEIYHKMLVNLLDS
In general, kcat/Km refers to the turnover number divided by the Michaelis constant. With B1, the kcat/Km in [6] was 3.49 10^5/M/s; in [7], 4.4 10^5/M/s; in [8] it was 3.49 10^5/M/s; in series [9], 4.03 10^5/M/s.
